Data on two substances can be found in patent publication US20060088843A1 (priority 2004, published 2006).

The test system of one data set is NAChR. The class given is binding.
Another data set has as its system herpesvirus. The settings on record: cited from earlier work.
A further data set deals with Semliki Forest virus. The settings on record: cited from earlier work.
Data set [1] in a line: pI and pH of protein solutions. It counts as physicochemical.
A short description of data set [2]: Antiviral activity in similar assays (not specified).
The test system of another data set is mice. Put plainly: Toxicity assay in mice.

Take autoclaved alpha-cobratoxin: in the data set on NAChR, the “binding to native receptor” value was “still capable of binding to its native receptor”. For the same substance, the “antiviral activity against herpes” value with herpesvirus is “no antiviral activity”. For the same substance, the “antiviral activity against Semliki Forest virus” value in the data set on Semliki Forest virus is listed as “no antiviral activity”.

In data set [1], “alpha-cobratoxin [native alpha-cobratoxin]” gave a pH of solution of 10.4 and a pI of 9.6. The antiviral activity entry in data set [2] is recorded as “does not demonstrate antiviral activity”. The “antiviral activity against herpes” value with herpesvirus is reported as “does not have any antiviral activity”. Moreover, in the data set with Semliki Forest virus, the “antiviral activity against Semliki Forest virus” value is on record as “does not have any antiviral activity”. For the same substance, the LD50 in mice with mice (injected subcutaneously or intra-peritoneally) was found to be 1.2 µg. Also, the time to death with mice (injection of 1.5 mcg, 25 g mouse) is ≤ 25 min.
